This is an account of results in the supplement of paper PMC10307832.

What all share (assay): relative viability (nuclei count vs DMSO), 5 days (fraction); higher = more cells survive
Compound in assay [1]: O=C(C[C@H]1NCCC[C@@H]1O)Cn1cnc2cc(Br)c(Cl)cc2c1=O (racemic) [Halofuginone] + CC(=O)Nc1cccc(-n2c(=O)n(C3CC3)c(=O)c3c(Nc4ccc(I)cc4F)n(C)c(=O)c(C)c32)c1 [Trametinib] (partner 0.02 µM)
Put shortly: (§1)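 Values are medians from duplicate plates. Each reflects relative viability, defined as the nuclei count of treated wells over that of vehicle wells. Lung cancer cell lines in 1536-well plates were pin-tool dosed one day after seeding with one drug alone or with a fixed anchor-drug dose plus five library-drug doses (not always all listed) in √10 steps, then fixed, stained and imaged at 4× after 5 days.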

Compound in assay [2]: COc1cc2c(Oc3ccc4[nH]c(C)cc4c3F)ncnc2cc1OCCCN1CCCC1 [Cediranib] + CS(=O)(=O)N1CCN(Cc2cc3nc(-c4cccc5[nH]ncc45)nc(N4CCOCC4)c3s2)CC1 [Pictilisib] (partner 1 µM)
Put shortly:
as §1

Compound in assay [3]: COc1cc2c(Oc3ccc4[nH]c(C)cc4c3F)ncnc2cc1OCCCN1CCCC1 [Cediranib] + CCNC(=O)c1noc(-c2cc(C(C)C)c(O)cc2O)c1-c1ccc(CN2CCOCC2)cc1 [Luminespib] (partner 0.01 µM)
Summed up: as §1

Compound in assay [4]: O=C(C[C@H]1NCCC[C@@H]1O)Cn1cnc2cc(Br)c(Cl)cc2c1=O (racemic) [Halofuginone] + NC(=O)Nc1cc(-c2cccc(F)c2)sc1C(=O)N[C@H]1CCCNC1 [AZD7762] (partner 0.2 µM)
Put shortly:
as §1

On to NCI-H1975, for which the relative viability was determined as 0.448 in assay [1] (first compound 0.001 µM); 0.317 in assay [1] (first compound 0.003162 µM); 0.361 in assay [1] (first compound 0.01 µM); 0.298 in assay [1] (first compound 0.03162 µM); 0.157 in assay [1] (first compound 0.1 µM); 0.316 in assay [2] (first compound 0.04 µM). Further, the relative viability in assay [2] (first compound 0.1265 µM) turned out to be 0.466; in assay [2] (first compound 0.4 µM), 0.275; in assay [2] (first compound 1.265 µM), 0.239; in assay [2] (first compound 4 µM), 0.29; in assay [3] (first compound 0.04 µM) it was 0.166; in assay [3] (first compound 0.1265 µM) it was 0.14. Also, the relative viability in assay [3] (first compound 0.4 µM) was found to be 0.207; in assay [3] (first compound 1.265 µM), 0.194; in assay [3] (first compound 4 µM), 0.196; in assay [4] (first compound 0.001 µM) it was 0.737; in assay [4] (first compound 0.003162 µM), 0.792; in assay [4] (first compound 0.01 µM), 0.666. Moreover, the relative viability was 0.644 in assay [4] (first compound 0.03162 µM) and 0.402 in assay [4] (first compound 0.1 µM).

As to LK-2, the relative viability is 0.853 in assay [1] (first compound 0.001 µM); 0.775 in assay [1] (first compound 0.003162 µM); 0.592 in assay [1] (first compound 0.01 µM); 0.823 in assay [1] (first compound 0.03162 µM); 0.519 in assay [1] (first compound 0.1 µM); 0.607 in assay [2] (first compound 0.04 µM). The relative viability in assay [2] (first compound 0.1265 µM) is 0.524; in assay [2] (first compound 0.4 µM), 0.573; in assay [2] (first compound 1.265 µM) it was 0.591; in assay [2] (first compound 4 µM) it was 0.319; in assay [3] (first compound 0.04 µM), 0.217; in assay [3] (first compound 0.1265 µM), 0.16. Further, the relative viability in assay [3] (first compound 0.4 µM) worked out at 0.196; in assay [3] (first compound 1.265 µM), 0.159; in assay [3] (first compound 4 µM) it was 0.188; in assay [4] (first compound 0.001 µM) it was 0.583; in assay [4] (first compound 0.003162 µM), 0.432; in assay [4] (first compound 0.01 µM) it was 0.487. Besides, the relative viability in assay [4] (first compound 0.03162 µM) is 0.491; in assay [4] (first compound 0.1 µM) it was 0.281.

EKVX: the relative viability in assay [1] (first compound 0.001 µM) was 0.383; in assay [1] (first compound 0.003162 µM), 0.358; in assay [1] (first compound 0.01 µM), 0.339; in assay [1] (first compound 0.03162 µM), 0.37; in assay [1] (first compound 0.1 µM), 0.314; in assay [2] (first compound 0.04 µM) it was 0.408. Further, the relative viability in assay [2] (first compound 0.1265 µM) worked out at 0.563; in assay [2] (first compound 0.4 µM) it was 0.427; in assay [2] (first compound 1.265 µM), 0.487; in assay [2] (first compound 4 µM) it was 0.383; in assay [3] (first compound 0.04 µM), 0.965; in assay [3] (first compound 0.1265 µM), 0.969. Also, the relative viability in assay [3] (first compound 0.4 µM) is 0.822; in assay [3] (first compound 1.265 µM), 0.742; in assay [3] (first compound 4 µM) it was 0.995; in assay [4] (first compound 0.001 µM) it was 0.721; in assay [4] (first compound 0.003162 µM), 0.615; in assay [4] (first compound 0.01 µM), 0.692. Further, the relative viability was 0.784 in assay [4] (first compound 0.03162 µM) and 0.496 in assay [4] (first compound 0.1 µM).

Take NCI-H838: the relative viability in assay [1] (first compound 0.001 µM) is 0.504; in assay [1] (first compound 0.003162 µM), 0.518; in assay [1] (first compound 0.01 µM), 0.468; in assay [1] (first compound 0.03162 µM), 0.38; in assay [1] (first compound 0.1 µM), 0.191; in assay [2] (first compound 0.04 µM) it was 0.542. In addition, the relative viability in assay [2] (first compound 0.1265 µM) is 0.46; in assay [2] (first compound 0.4 µM), 0.395; in assay [2] (first compound 1.265 µM) it was 0.275; in assay [2] (first compound 4 µM) it was 0.558; in assay [3] (first compound 0.04 µM) it was 0.328; in assay [3] (first compound 0.1265 µM), 0.289. The relative viability in assay [3] (first compound 0.4 µM) came out at 0.276; in assay [3] (first compound 1.265 µM), 0.314; in assay [3] (first compound 4 µM) it was 0.272; in assay [4] (first compound 0.001 µM), 1.02; in assay [4] (first compound 0.003162 µM), 0.799; in assay [4] (first compound 0.01 µM), 0.933. Also, the relative viability in assay [4] (first compound 0.03162 µM) amounted to 0.876; in assay [4] (first compound 0.1 µM) it was 0.751.

Take NCI-H2085: the relative viability stood at 0.541 in assay [1] (first compound 0.001 µM); 0.512 in assay [1] (first compound 0.003162 µM); 0.525 in assay [1] (first compound 0.01 µM); 0.585 in assay [1] (first compound 0.03162 µM); 0.349 in assay [1] (first compound 0.1 µM); 0.466 in assay [2] (first compound 0.04 µM). Besides, the relative viability in assay [2] (first compound 0.1265 µM) was 0.501; in assay [2] (first compound 0.4 µM), 0.473; in assay [2] (first compound 1.265 µM), 0.419; in assay [2] (first compound 4 µM), 0.399; in assay [3] (first compound 0.04 µM), 0.506; in assay [3] (first compound 0.1265 µM), 0.406. The relative viability in assay [3] (first compound 0.4 µM) came out at 0.42; in assay [3] (first compound 1.265 µM), 0.421; in assay [3] (first compound 4 µM), 0.478; in assay [4] (first compound 0.001 µM), 0.996; in assay [4] (first compound 0.003162 µM), 1.02; in assay [4] (first compound 0.01 µM) it was 0.947. Further, the figures for the relative viability in assay [4] (first compound 0.03162 µM) and in assay [4] (first compound 0.1 µM) were 0.992 and 0.932, respectively.
